Molecules are shown by their SMILES.

This is an account of results in patent US8703961B2, “Thiazole derivatives for the treatment of diseases such as cancer” (Merck Patent GmbH, priority 2009, dated 2014).

Common to all, as to assay: filter binding kinase assay
Holding throughout (type): biochemical

One test has as its target T1, BTK (Homo sapiens, UniProt Q06187).
T1 construct: purchased
The following applies: derived from % inhibition at 1 μM. In outline: (§1)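 Compound was pre-incubated with enzyme and substrate for 5 minutes at room temperature, then the reaction was started with ATP (added solution at 5, 20 or 50 […] depending on kinase). Orthophosphoric acid stopped it, and phosphorylated substrate captured on P81 filters was quantified by scintillation counting.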

The target in the next test is T2, PIM1 (Homo sapiens, UniProt P11309).
T2 construct: purchased
To be noted: derived from % inhibition at 1 μM. In a few lines: as §1

A further test deals with T3, DYRK1A (Homo sapiens, UniProt Q13627).
T3 construct: purchased
To be noted: derived from % inhibition at 1 μM. In outline:
as §1

The target in the next test is T4, MAPKAPK2 (Homo sapiens, UniProt P49137).
T4 construct: purchased
The following applies: derived from % inhibition at 1 μM. In outline: as §1

The target of the next test is T5, RIPK2 (Homo sapiens, UniProt O43353).
T5 construct: purchased
The following applies: derived from % inhibition at 1 μM. In outline:
as §1

The target in the next test is T6, RPS6KA1 (Homo sapiens, UniProt Q15418).
T6 construct: purchased
To be noted: derived from % inhibition at 1 μM. In outline:
as §1

In a further test the target is T7, CHEK1 (CHK1) (Homo sapiens, UniProt O14757).
T7 construct: purchased
T7 sequence (O14757 1-476): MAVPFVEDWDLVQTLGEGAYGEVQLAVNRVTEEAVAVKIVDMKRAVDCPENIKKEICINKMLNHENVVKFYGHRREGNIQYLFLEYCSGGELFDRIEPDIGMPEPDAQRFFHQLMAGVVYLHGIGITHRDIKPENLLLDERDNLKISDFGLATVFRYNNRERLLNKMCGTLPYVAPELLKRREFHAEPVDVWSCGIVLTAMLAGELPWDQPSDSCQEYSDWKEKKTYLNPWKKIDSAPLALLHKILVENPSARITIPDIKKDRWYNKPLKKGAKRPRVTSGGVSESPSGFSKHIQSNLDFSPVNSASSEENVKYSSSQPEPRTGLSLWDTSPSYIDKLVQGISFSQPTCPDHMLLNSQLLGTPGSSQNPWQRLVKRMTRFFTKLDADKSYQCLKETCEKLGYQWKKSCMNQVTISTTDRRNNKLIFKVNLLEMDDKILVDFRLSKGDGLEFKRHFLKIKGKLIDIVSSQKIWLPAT
The following applies: for IC50: derived from % inhibition at 1 μM. In a few lines: as §1

In the next test the target is T8, CSK (Homo sapiens, UniProt P41240).
T8 construct: purchased
To be noted: derived from % inhibition at 1 μM. In outline: as §1

The target of a further test is T9, BRSK2 (Homo sapiens, UniProt Q8IWQ3).
T9 construct: purchased
T9 sequence (Q8IWQ3 1-736): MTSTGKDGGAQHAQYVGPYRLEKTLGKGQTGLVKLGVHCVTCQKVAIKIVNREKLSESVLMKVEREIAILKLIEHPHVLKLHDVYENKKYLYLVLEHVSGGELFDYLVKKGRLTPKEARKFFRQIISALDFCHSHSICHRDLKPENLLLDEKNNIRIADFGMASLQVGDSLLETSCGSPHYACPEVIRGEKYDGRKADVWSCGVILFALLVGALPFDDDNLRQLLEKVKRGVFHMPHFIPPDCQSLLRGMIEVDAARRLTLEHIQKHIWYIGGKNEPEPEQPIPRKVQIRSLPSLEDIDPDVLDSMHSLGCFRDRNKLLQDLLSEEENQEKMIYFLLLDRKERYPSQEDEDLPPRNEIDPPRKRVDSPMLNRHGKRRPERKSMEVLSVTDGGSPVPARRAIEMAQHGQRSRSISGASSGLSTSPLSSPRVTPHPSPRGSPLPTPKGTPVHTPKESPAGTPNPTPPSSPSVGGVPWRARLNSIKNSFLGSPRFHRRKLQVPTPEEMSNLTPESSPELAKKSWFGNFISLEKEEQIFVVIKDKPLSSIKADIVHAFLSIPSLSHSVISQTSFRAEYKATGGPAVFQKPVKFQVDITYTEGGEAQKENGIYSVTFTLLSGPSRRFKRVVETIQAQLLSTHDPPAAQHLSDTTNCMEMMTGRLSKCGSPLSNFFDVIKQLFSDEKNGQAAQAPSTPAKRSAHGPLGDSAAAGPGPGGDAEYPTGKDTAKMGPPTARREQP
To be noted: derived from % inhibition at 1 μM. In outline:
as §1

The target in another test is T10, PAK4 (PAK-4) (Homo sapiens, UniProt O96013).
T10 construct: purchased
The following applies: for IC50: derived from % inhibition at 1 μM. In outline: as §1

The target in another test is T11, BRSK1 (Homo sapiens, UniProt Q8TDC3).
T11 construct: purchased
T11 sequence (Q8TDC3 1-778): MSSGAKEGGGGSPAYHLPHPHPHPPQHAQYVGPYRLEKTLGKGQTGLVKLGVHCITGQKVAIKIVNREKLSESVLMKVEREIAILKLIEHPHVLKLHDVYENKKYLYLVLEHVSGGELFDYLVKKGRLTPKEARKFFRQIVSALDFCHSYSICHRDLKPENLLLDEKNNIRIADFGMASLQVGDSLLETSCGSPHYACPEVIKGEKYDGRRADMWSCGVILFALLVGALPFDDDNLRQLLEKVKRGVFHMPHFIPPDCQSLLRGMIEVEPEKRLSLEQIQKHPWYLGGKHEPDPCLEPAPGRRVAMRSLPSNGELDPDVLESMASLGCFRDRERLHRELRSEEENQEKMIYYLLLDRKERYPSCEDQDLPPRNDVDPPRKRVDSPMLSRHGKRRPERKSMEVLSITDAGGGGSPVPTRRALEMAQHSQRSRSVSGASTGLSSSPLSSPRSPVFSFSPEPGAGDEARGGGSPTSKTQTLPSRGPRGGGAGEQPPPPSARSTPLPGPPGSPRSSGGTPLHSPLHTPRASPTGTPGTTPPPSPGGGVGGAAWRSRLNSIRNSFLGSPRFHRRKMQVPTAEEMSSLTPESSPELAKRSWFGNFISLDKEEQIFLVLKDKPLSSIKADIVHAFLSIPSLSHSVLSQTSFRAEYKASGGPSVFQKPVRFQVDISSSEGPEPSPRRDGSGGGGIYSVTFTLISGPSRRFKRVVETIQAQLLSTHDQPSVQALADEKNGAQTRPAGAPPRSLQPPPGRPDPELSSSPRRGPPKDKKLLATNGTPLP
To be noted: derived from % inhibition at 1 μM. In outline: as §1

T2 sequence (P11309 whole entry, species assumed): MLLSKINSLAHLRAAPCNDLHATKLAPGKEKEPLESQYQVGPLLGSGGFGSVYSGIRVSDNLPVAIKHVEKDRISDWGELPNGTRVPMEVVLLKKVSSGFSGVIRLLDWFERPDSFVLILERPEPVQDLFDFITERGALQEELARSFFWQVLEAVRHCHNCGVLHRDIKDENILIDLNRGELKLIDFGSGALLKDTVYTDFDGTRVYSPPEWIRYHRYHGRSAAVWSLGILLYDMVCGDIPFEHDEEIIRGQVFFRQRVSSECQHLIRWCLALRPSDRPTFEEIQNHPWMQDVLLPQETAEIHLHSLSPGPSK
T4 sequence (P49137 whole entry, species assumed): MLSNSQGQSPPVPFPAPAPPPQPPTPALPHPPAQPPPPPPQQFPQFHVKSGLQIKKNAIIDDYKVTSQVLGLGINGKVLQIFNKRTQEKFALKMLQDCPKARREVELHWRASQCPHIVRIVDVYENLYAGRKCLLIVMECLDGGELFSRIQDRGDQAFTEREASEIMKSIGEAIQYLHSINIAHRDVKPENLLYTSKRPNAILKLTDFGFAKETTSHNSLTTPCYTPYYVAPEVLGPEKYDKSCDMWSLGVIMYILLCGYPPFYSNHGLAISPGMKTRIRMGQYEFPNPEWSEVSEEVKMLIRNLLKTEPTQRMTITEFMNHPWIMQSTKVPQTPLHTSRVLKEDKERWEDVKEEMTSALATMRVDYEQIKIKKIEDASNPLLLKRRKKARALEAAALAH
T10 sequence (O96013 whole entry, species assumed): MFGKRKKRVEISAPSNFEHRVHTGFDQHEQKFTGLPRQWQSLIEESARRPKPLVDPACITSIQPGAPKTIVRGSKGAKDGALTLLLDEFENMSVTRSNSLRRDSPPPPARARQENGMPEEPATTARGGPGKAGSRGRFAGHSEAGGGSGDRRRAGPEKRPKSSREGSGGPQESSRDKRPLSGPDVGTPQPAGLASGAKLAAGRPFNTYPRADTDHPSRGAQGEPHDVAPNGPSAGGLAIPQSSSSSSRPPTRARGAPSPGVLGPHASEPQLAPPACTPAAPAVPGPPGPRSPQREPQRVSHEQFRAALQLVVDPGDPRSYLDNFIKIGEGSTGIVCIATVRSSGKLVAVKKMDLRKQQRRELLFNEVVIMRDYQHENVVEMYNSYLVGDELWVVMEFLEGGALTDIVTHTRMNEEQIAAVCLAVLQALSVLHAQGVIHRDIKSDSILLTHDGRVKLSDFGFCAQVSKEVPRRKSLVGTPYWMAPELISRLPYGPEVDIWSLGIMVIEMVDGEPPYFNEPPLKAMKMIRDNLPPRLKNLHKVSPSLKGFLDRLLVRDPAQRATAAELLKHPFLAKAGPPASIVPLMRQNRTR
T8 sequence (P41240 whole entry, species assumed): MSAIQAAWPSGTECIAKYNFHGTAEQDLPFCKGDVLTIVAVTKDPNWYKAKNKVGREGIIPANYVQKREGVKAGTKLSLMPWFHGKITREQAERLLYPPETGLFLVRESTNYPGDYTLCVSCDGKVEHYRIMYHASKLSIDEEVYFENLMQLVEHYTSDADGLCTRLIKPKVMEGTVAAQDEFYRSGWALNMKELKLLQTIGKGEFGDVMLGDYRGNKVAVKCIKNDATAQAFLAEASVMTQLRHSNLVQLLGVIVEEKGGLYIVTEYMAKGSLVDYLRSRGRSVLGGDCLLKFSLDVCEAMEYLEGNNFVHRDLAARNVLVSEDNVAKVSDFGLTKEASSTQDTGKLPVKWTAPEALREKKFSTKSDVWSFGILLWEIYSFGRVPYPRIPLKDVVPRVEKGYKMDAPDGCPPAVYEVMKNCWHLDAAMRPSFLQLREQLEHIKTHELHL
T5 sequence (O43353 whole entry, species assumed): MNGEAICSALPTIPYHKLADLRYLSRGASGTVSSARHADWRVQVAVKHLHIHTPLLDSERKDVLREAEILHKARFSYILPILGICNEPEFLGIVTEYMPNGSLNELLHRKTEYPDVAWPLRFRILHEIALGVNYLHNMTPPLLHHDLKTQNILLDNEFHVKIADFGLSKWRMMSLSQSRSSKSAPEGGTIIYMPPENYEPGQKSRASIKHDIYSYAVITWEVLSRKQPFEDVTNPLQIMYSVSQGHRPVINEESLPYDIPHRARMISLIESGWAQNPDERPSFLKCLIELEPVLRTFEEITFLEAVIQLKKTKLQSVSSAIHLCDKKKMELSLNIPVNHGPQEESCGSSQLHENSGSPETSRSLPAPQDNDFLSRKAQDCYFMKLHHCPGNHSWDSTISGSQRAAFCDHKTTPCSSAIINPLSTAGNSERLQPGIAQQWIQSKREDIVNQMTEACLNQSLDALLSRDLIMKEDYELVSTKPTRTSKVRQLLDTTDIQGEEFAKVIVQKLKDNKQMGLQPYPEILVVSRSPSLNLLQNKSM
T1 sequence (Q06187 whole entry, species assumed): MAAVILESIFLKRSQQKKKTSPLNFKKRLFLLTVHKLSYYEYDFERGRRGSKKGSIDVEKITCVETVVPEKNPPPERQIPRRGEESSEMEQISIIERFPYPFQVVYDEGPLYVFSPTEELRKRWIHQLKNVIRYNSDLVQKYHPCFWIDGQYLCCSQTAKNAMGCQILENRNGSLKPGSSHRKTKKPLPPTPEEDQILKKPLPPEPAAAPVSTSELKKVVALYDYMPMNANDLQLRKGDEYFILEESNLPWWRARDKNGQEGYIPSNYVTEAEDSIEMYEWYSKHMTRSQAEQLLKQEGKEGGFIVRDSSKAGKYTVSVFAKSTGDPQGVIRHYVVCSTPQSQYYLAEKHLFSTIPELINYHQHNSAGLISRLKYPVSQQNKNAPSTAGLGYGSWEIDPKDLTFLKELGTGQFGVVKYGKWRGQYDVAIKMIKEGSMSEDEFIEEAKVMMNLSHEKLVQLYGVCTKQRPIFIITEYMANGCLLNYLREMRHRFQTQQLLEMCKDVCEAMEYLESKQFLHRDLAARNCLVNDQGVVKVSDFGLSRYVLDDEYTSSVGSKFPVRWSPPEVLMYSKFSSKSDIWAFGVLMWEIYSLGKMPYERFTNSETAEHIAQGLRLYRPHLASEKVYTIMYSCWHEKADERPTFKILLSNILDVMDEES
T6 sequence (Q15418 whole entry, species assumed): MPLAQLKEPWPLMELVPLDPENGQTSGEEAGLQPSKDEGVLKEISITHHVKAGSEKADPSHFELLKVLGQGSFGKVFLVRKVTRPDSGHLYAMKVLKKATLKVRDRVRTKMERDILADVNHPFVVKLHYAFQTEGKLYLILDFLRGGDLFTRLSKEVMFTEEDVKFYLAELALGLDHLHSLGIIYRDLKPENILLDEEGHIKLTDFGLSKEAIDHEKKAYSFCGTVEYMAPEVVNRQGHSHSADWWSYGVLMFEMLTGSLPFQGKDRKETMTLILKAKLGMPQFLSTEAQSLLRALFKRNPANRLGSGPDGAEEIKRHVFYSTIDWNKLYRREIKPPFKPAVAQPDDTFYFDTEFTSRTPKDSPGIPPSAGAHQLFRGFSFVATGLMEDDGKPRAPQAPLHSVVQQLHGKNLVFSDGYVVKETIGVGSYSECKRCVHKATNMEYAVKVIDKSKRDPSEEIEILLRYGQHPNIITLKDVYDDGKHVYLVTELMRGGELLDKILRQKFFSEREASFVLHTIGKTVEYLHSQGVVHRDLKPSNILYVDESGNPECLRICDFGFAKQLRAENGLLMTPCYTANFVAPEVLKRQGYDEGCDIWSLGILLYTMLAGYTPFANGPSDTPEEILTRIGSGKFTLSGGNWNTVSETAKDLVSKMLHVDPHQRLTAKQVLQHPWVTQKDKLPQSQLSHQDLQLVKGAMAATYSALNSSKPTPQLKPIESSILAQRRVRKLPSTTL

On to `Nc1ncsc1C#Cc1cnc2[nH]ccc2c1` [Compound A22, 5-(1H-pyrrolo[2,3-b]pyridin-5-ylethynyl)thiazol-4-ylamine], for which the IC50 (in general, the midpoint of a concentration-inhibition curve) at BTK was 10 to 100 µM; at PIM1 it was 1 to 10 µM; at DYRK1A it was above 1 µM; on MAPKAPK2 it was above 1 µM; on RIPK2 it was 1 to 10 µM; at RPS6KA1, above 1 µM. Moreover, the half-inhibitory concentration (IC50) was 0.01 to 1 µM on CHEK1 (CHK1); 10 to 100 µM on CSK; above 1 µM at BRSK2; 0.01 to 1 µM on PAK4 (PAK-4); 1 to 10 µM on BRSK1. Moreover, the remaining activity at 1 µM at CHEK1 (CHK1) (read-out: residual kinase activity CHK1) worked out at 40%; on PAK4 (PAK-4) (read-out: residual kinase activity PAK-4), 34%.
In the case of `CC(C)(C)OC(=O)Nc1ncsc1C#CCN1C(=O)c2ccccc2C1=O` [Compound A26, tert-butyl{5-[3-(1,3-dioxo-1,3-dihydroisoindol-2-yl)prop-1-ynyl]-thiazol-4-yl}carbamate], the IC50 on BTK is above 1 µM; on PIM1, 10 to 100 µM; at DYRK1A it was 10 to 100 µM; at MAPKAPK2, 10 to 100 µM; on RIPK2, 10 to 100 µM; on RPS6KA1, above 1 µM. For the same compound, the IC50 on CHEK1 (CHK1) was 10 to 100 µM; on CSK, 10 to 100 µM; on BRSK2, above 1 µM; on PAK4 (PAK-4), 1 to 10 µM; on BRSK1, above 1 µM.
For `Nc1ncsc1C#Cc1cccc(O)c1` [Compound A27, 3-(4-aminothiazol-5-ylethynyl)phenol], the IC50 at BTK was 10 to 100 µM; on PIM1 it was 1 to 10 µM; on DYRK1A, 10 to 100 µM; on MAPKAPK2 it was 10 to 100 µM; at RIPK2, 1 to 10 µM; on RPS6KA1 it was above 1 µM. The IC50 on CHEK1 (CHK1) was 10 to 100 µM; at CSK, 10 to 100 µM; at BRSK2, 10 to 100 µM; at PAK4 (PAK-4), above 1 µM; on BRSK1, 1 to 10 µM.
Consider `CC(C)(C)OC(=O)Nc1nc(-c2ccncc2)sc1C#CCN1CCOCC1` [Compound A25, tert-butyl[5-(3-morpholin-4-ylprop-1-ynyl)-2-pyridin-4-ylthiazol-4-yl]-carbamate], for which the IC50 was 10 to 100 µM at BTK; above 1 µM on PIM1; above 1 µM at DYRK1A; above 1 µM at MAPKAPK2; above 1 µM at RIPK2; 10 to 100 µM on RPS6KA1. In addition, the IC50 on CHEK1 (CHK1) was 10 to 100 µM; on CSK it was above 1 µM; on BRSK2, above 1 µM; on PAK4 (PAK-4), above 1 µM; on BRSK1 it was above 1 µM.
As for `c1ccc(Cc2c[nH]c3ncsc23)cc1` [Compound A7, 6-benzyl-4H-pyrrolo[2,3-d]thiazole], the IC50 was 10 to 100 µM on BTK; 10 to 100 µM on PIM1; above 1 µM at DYRK1A; above 1 µM on MAPKAPK2; 10 to 100 µM at RIPK2; 10 to 100 µM on RPS6KA1. The IC50 was above 1 µM at CHEK1 (CHK1); 1 to 10 µM at CSK; above 1 µM on BRSK2; above 1 µM on PAK4 (PAK-4); 1 to 10 µM at BRSK1.
